Measured values from patent US12516056B2, “Compounds for inhibition of janus kinase 1” (MANKIND PHARMA LTD., priority 2019, dated 2026).
Like-named read-outs stand apart in the source and are kept apart here.

What was measured:
[1] = tested on: collagen induced mouse arthritis model; assay: Mouse model of rheumatoid arthritis (collagen induced arthritis); assay type: in vivo; details: orally dosed, QD for 21 days; reference filgotinib
From the text: Rheumatoid arthritis (RA) is an autoimmune disease that can cause joint pain and damage throughout the body. Several cytokines such as IL-6 and IFN-γ activate the Janus kinase/signal transducers and activators of transcription (JAK/STAT) pathway. Inhibition of JAK/STAT pathway is considered as one of the therapeutic options for treatment of rheumatoid arthritis. Rodent models of arthritis can be used to evaluate the therapeutic potential of compounds dosed preventatively or therapeutically. These models include but are not limited to mouse or rat collagen-induced arthritis, rat adjuvant-induced arthritis, and collagen antibody-induced arthritis.
Compounds described herein are tested for JAK/STAT pathway inhibition driven efficacy in collagen induced mouse arthritis model. Compounds were orally dosed, QD for 21 days and at the end of the study, clinical symptoms, body weight and histopathology of ankle and paws were measured. Arthritis score was calculated for the compounds as well as reference standard, filgotinib.

Recombinant JAK3 = molecular target: T1, Recombinant JAK3 (Homo sapiens, UniProt P52333); assay: JAK biochemical assay (LANCE Ultra TR-FRET), JAK3
T1 construct: purchased Carna Biosciences
T1 sequence (P52333 1-1124): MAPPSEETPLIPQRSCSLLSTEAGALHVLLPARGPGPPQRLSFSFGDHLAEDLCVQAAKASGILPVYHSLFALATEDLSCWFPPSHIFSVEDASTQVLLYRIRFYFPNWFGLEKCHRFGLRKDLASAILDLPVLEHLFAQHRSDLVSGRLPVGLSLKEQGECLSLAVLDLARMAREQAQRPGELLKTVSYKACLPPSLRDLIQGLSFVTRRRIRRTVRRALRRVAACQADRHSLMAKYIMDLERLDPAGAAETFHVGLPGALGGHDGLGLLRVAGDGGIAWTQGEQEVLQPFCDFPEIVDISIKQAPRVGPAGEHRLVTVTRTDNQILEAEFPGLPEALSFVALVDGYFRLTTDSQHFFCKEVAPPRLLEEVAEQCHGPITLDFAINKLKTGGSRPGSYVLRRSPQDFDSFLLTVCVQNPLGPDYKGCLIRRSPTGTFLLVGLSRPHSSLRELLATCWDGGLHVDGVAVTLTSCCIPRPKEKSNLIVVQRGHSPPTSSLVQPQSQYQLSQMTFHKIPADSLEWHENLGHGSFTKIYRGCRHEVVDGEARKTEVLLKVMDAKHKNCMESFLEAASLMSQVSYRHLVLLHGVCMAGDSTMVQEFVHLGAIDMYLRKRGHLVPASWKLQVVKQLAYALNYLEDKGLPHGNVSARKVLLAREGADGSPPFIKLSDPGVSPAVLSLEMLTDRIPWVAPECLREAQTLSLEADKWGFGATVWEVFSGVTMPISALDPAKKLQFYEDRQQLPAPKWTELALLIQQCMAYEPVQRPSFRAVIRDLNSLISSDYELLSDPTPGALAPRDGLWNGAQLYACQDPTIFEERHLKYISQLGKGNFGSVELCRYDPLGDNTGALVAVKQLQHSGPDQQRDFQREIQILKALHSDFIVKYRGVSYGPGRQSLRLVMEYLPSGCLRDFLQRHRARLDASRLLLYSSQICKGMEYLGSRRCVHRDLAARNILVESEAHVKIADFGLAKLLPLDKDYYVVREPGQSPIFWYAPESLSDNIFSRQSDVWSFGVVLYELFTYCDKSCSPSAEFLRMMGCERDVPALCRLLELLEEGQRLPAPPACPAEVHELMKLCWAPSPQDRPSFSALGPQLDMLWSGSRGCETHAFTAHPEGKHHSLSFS
Method in brief: (§1)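 % inhibition relative to vehicle was derived from TR-FRET signal proportional to ULight-substrate phosphorylation. Reactions used recombinant kinase in HEPES pH 7.5 buffer containing EGTA, MgCl2, DTT and Tween-20.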

Recombinant JAK2 = molecular target: T2, Recombinant JAK2 (Homo sapiens, UniProt O60674); assay: JAK biochemical assay (LANCE Ultra TR-FRET), JAK2
T2 construct: purchased Carna Biosciences
Method in brief: as §1

[2] = tested on: STAT5 phosphorylation by GMCSF in TF-1 cells; assay: JAK cellular assay: STAT5 phosphorylation by GMCSF in TF-1 cells (HTRF); assay type: cell-based; details: Homo sapiens, TF-1 cells
Method in brief: (§2)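 TF-1 cells starved overnight in low-serum OptiMEM, then 120,000/well in RPMI, preincubated with compound 30 min at 37 °C (0.2% DMSO final). Stimulation 20 min with IL-6 30 ng/ml (pSTAT3) or GMCSF 5 ng/ml (pSTAT5); lysate phospho-STAT by HTRF, unstimulated background subtracted.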

[3] = tested on: STAT3 phosphorylation by IL-6 in TF-1 cells; assay: JAK cellular assay: STAT3 phosphorylation by IL-6 in TF-1 cells (HTRF); assay type: cell-based; details: Homo sapiens, TF-1, TF-1 cells
Method in brief: as §2

[4] = tested on: IFN-γ production in NK 92 cells by IL-12; assay: IFN-γ production in NK 92 cells by IL-12 (ELISA); details: NK92, IFN-γ detection from cell supernatants, read-out: Cell based IC50 (μM) NK-92/IL-12*
Method: NK 92 cells were cultured in medium without IL-2 for overnight. Next day, 5000 cells per well NK 92 cells were seeded in a 96 well plate. Compounds were added to cells and incubated for 1 hour. Later IL-12, 10 U/ml was added to cells and incubated for overnight. Supernatant was collected from the wells and IFN-7 secretion was measured by using human IFN-7 ELISA kit. Absorbance was measured at 450 nm in BMG FLUOstar. Background signal obtained from cells which were not activated with cytokines, was subtracted from vehicle controls and compound treated wells.

[5] = read-out: Biochemical IC50 (nM) JAK3
[6] = read-out: Biochemical IC50 (nM) JAK2
[7] = GM-CSF stimulation, read-out: Cell based IC50 (μM) TF-1/GM-CSF
[8] = IL-6 30 ng/ml, pSTAT3 HTRF, read-out: Cell Based Assay (μM) TF-1/IL-6/pSTAT3
[9] = IL-6 stimulation, read-out: Cell based IC50 (μM) TF-1/IL-6

T2 sequence (O60674 whole entry): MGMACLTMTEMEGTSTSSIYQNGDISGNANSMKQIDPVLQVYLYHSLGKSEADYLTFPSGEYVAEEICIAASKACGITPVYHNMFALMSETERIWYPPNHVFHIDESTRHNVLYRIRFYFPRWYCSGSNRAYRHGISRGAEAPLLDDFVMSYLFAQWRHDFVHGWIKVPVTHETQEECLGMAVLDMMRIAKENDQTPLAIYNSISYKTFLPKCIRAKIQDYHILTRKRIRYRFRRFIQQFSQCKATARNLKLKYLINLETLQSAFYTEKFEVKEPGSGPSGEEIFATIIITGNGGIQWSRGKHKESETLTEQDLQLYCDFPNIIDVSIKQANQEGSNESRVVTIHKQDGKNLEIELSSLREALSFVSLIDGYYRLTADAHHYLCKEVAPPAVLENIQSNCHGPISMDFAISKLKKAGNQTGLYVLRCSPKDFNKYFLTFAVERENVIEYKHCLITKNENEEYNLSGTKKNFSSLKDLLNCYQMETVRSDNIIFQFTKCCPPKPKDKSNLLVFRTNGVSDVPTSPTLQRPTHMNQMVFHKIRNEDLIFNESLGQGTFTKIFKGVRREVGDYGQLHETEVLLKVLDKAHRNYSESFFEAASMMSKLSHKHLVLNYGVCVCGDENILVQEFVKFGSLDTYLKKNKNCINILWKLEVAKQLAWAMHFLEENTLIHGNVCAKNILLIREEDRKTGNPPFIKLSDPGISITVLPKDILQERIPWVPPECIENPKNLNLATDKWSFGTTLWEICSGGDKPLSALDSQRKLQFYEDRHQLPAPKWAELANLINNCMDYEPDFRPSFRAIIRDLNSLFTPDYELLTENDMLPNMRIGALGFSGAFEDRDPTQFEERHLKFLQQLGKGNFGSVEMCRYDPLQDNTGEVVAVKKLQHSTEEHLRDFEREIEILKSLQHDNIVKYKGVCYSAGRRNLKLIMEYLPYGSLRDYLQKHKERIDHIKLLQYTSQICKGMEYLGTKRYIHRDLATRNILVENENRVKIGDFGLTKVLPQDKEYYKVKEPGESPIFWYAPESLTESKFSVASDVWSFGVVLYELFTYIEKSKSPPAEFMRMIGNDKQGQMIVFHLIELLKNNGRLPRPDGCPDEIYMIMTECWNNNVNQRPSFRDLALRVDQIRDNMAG

| IC50 (Recombinant JAK3; [5]) [nM] | IC50 (Recombinant JAK2; [6]) [nM] | IC50 [2, 7] [µM] | IC50 ([2]; GMCSF 5 ng/ml, pSTAT5 HTRF, read-out: Cell Based Assay (μM) TF-1/GMCSF/pSTAT5) [µM] | IC50 [3, 8] [µM] | IC50 [3, 9] [µM] | IC50 [4] [µM] | IC50 (Recombinant JAK3; recombinant JAK3, TR-FRET, read-out: Biochemical Assay (μM) JAK3) [nM] | IC50 (Recombinant JAK2; recombinant JAK2, TR-FRET, read-out: Biochemical Assay (μM) JAK2) [nM] | SMILES | efficacy (arthritis score) in collagen induced mouse arthritis model [1] |
| --- | --- | --- | --- | --- | --- | --- | --- | --- | --- | --- |
| 100 | 152 | > 10 | > 10 | 0.6 | 0.6 | > 10 |  |  | CN1CCC(C(O)(c2ccc(-n3cc(-c4ccnc5[nH]cnc45)cn3)nc2)C(F)(F)F)CC1 (centres unmarked) [Example 1133, 1-(6-(4-(3H-imidazo[4,5-b]pyridin-7-yl)-1H-pyrazol-1-yl)pyridin-3-yl)-2,2,2-trifluoro-1-(1-methylpiperidin-4-yl)ethanol] | very good efficacy |
| 11 | 40 | > 10 |  | 0.32 | 0.3 | > 10 | < 100 | < 100 | CC(C)NC(=O)CC[C@@H](c1ccc(-n2cc(-c3ccnc4[nH]cnc34)cn2)nc1)C(F)(F)F [Example 1215, (S)-4-(6-(4-(3H-imidazo[4,5-b]pyridin-7-yl)-1H-pyrazol-1-yl)pyridin-3-yl)-5,5,5-trifluoro-N-isopropylpentanamide] | very good efficacy |
